From patent US20240116985A1, “STAPLED PEPTIDES AND METHODS THEREOF” (priority 2020, published 2024) come the findings set out here.

Assay [1] addresses T1, beta-catenin/TCF4 engagement (Homo sapiens, UniProt P35222).
T1 construct: expressed in transfected cells; host or cells: HEK293
T1 sequence (P35222 1-781): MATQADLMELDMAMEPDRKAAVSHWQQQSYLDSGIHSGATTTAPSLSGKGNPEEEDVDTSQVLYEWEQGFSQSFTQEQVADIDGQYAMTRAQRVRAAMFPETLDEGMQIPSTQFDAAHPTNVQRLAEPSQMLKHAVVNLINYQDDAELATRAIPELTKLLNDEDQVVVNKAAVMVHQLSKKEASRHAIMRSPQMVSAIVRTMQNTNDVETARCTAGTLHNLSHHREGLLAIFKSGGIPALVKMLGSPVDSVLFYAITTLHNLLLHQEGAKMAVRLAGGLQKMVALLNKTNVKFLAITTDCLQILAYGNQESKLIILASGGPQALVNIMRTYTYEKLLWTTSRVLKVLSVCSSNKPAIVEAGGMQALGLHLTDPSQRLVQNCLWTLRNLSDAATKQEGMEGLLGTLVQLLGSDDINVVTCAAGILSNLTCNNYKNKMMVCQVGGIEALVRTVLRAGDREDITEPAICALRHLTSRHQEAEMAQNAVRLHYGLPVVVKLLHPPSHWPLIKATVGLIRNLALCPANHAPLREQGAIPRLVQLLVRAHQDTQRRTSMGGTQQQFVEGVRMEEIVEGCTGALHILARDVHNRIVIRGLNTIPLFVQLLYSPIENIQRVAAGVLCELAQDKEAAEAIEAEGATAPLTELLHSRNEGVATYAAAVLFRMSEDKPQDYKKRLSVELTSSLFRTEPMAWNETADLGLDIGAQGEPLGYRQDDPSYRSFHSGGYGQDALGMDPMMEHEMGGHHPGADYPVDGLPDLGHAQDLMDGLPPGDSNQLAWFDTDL
The experiment in a line: Nano-BRET target engagement assay (B-cat-Halo & TCF4-Luc in HEK293 cells). It counts as cell-based. As to conditions: absolute IC50; read-out: NanoBRET Abs IC50. On the technique in general: In BRET a luciferase serves as donor, and the signal depends on an acceptor being close.

Assay [2] deals with T2, full-length beta-Catenin (Uniprot ID P35222) (Homo sapiens, UniProt P35222).
T2 construct: 10 nM full-length beta-Catenin (Uniprot ID P35222)
T2 sequence (P35222 1-781): T1 sequence (P35222 1-781)
The experiment in a line: Fluorescence polarization IC50 (beta-catenin / 5FAM-TCF4 10-53 competition). It counts as binding. Conditions: fluorescence polarization; read-out: beta-Catenin FP IC50. In general terms: Polarisation of emitted light reports the rotation of a fluorescent probe.

As to `CC(=O)N1CCC[C@]12CC=CCCCC1(CCCC=CCCCOC(=O)N3CC[C@@](C(=O)N[C@@H](Cc4ccccc4C(F)(F)F)C(=O)N[C@@H](Cc4ccc5ccccc5c4)C(=O)N[C@@H](CCC(N)=O)C(N)=O)(C3)NC(=O)[C@H](CC(C)C)NC(=O)[C@H](Cc3ccccc3)NC(=O)[C@H](C)NC(=O)[C@H](C)NC(=O)[C@H](Cc3cccc(C(=O)O)c3)NC(=O)[C@H](CC(=O)O)NC1=O)NC(=O)[C@H](CC(C)(C)C)NC(=O)[C@H](CC(=O)O)NC2=O` (stereo partly drawn) [I-2460, Ac-PL3-Asp-Npg-B5-Asp-3COOHF-Ala-Ala-Phe-Leu-PyrS2-2F3MeF-2NapA-Gln-NH2], the results for the half-inhibitory concentration (IC50) in assay [1] and in assay [2] were 12800 nM and 82 nM, respectively.
Take `CC(=O)N1CCC[C@]12CC=CCCCC1(CCCC=CCCCOC(=O)N3CC[C@@](C(=O)N[C@@H](Cc4ccccc4C(F)(F)F)C(=O)N[C@H](C(=O)N[C@@H](CCC(N)=O)C(N)=O)[C@H](C)c4ccc5ccccc5c4)(C3)NC(=O)[C@H](CC(C)C)NC(=O)[C@H](Cc3ccccc3)NC(=O)[C@H](C)NC(=O)[C@H](C)NC(=O)[C@H](Cc3cccc(C(=O)O)c3)NC(=O)[C@H](CC(=O)O)NC1=O)NC(=O)[C@H](CC(C)(C)C)NC(=O)[C@H](CC(=O)O)NC2=O` (stereo partly drawn) [I-2462, Ac-PL3-Asp-Npg-B5-Asp-3COOHF-Ala-Ala-Phe-Leu-PyrS2-2F3MeF-RbMe2NapA-Gln-NH2]: the figures for the IC50 in assay [1] and in assay [2] were 4700 nM and 40 nM, respectively.
Turning to `CC(=O)N1CCC[C@]12CC=CCCCC1(CCCC=CCCCOC(=O)N3CC[C@@](C(=O)N[C@@H](Cc4ccccc4C(F)(F)F)C(=O)N[C@H](C(=O)N[C@@H](C)C(N)=O)[C@H](C)c4ccc5ccccc5c4)(C3)NC(=O)[C@H](CC(C)C)NC(=O)[C@H](Cc3ccccc3)NC(=O)[C@H](C)NC(=O)[C@H](CCC(N)=O)NC(=O)[C@H](Cc3cccc(C(=O)O)c3)NC(=O)[C@H](CC(=O)O)NC1=O)NC(=O)[C@H](CC(C)(C)C)NC(=O)[C@H](CC(=O)O)NC2=O` (stereo partly drawn) [I-2463, Ac-PL3-Asp-Npg-B5-Asp-3COOHF-Gln-Ala-Phe-Leu-PyrS2-2F3MeF-RbMe2NapA-Ala-NH2], the values for the IC50 in assay [1] and in assay [2] were 6500 nM and 47 nM, respectively.
Taken in the same sequence, the figures for `CC(=O)N1CCC[C@]12CC=CCCCC1(CCCC=CCCCOC(=O)N3CC[C@@](C(=O)N[C@@H](Cc4ccccc4C(F)(F)F)C(=O)N[C@H](C(=O)N[C@@H](CCC(N)=O)C(N)=O)[C@@H](C)c4ccc5ccccc5c4)(C3)NC(=O)[C@H](CC(C)C)NC(=O)[C@H](Cc3ccccc3)NC(=O)[C@H](C)NC(=O)[C@H](C)NC(=O)[C@H](Cc3cccc(C(=O)O)c3)NC(=O)[C@H](CC(=O)O)NC1=O)NC(=O)[C@H](CC(C)(C)C)NC(=O)[C@H](CC(=O)O)NC2=O` (stereo partly drawn) [I-2464, Ac-PL3-Asp-Npg-B5-Asp-3COOHF-Ala-Ala-Phe-Leu-PyrS2-2F3MeF-SbMe2NapA-Gln-NH2] were 16500 nM and 79 nM.
As to `CC(=O)N1CCC[C@]12CC=CCCCC1(CCCC=CCCCOC(=O)N3CC[C@@](C(=O)N[C@@H](Cc4ccccc4C(F)(F)F)C(=O)N[C@H](C(=O)N[C@@H](C)C(N)=O)[C@@H](C)c4ccc5ccccc5c4)(C3)NC(=O)[C@H](CC(C)C)NC(=O)[C@H](Cc3ccccc3)NC(=O)[C@H](C)NC(=O)[C@H](CCC(N)=O)NC(=O)[C@H](Cc3cccc(C(=O)O)c3)NC(=O)[C@H](CC(=O)O)NC1=O)NC(=O)[C@H](CC(C)(C)C)NC(=O)[C@H](CC(=O)O)NC2=O` (stereo partly drawn) [I-2465, Ac-PL3-Asp-Npg-B5-Asp-3COOHF-Gln-Ala-Phe-Leu-PyrS2-2F3MeF-SbMe2NapA-Ala-NH2], the concentration for half-maximal inhibition (IC50) (commonly the concentration at which inhibition is half-maximal) is > 20000 nM in assay [1] and 164 nM in assay [2].
